Test system: 521955-158-R6-J3-PDC complex spheroid growth, % test/control
Assay: Anticancer human tumor 521955-158-R6-J3-PDC patient-derived pancreatic carcinoma cell line growth inhibition [Asc]
Conditions: for IC50: curve of first compound; for viability, T/C: stronger effect = lower value
Summary of the method: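 Spheroid model: tumor line + HUVEC + hMSC. Single agents and combinations; top conc. at/near clinical Cmax (10 microM if undetermined), half-log dilutions. DMSO stocks at 800-fold test concentration.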
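Also: spheroids exposed to compounds for 7 days.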
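For viability, T/C in this document: 100% = DMSO vehicle control wells.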

For `Cn1ncnc1[C@H]1c2n[nH]c(=O)c3cc(F)cc(c23)N[C@@H]1c1ccc(F)cc1` + CNC(C)C(=O)NC1CN(S(=O)(=O)c2cccc(S(=O)(=O)N3CCC4CCC(C(=O)NC(c5ccccc5)c5ccccc5)N4C(=O)C(NC(=O)C(C)NC)C3)c2)CCC2CCC(C(=O)NC(c3ccccc3)c3ccccc3)N2C1=O, the IC50 (second compound 0.00316 µM) was > 0.1 µM, the IC50 (second compound 0.01 µM) was > 0.1 µM and the IC50 (second compound 0.0316 µM) was > 0.1 µM. For the same molecule, the IC50 (second compound 0.1 µM) was > 0.1 µM, the IC50 (second compound 0.316 µM) was > 0.1 µM and the IC50 (second compound 1 µM) was > 0.1 µM. It also gave a viability, T/C (second compound 0.00316 µM, first compound 0.000316 µM) of 188%, a viability, T/C (second compound 0.00316 µM, first compound 0.001 µM) of 151% and a viability, T/C (second compound 0.00316 µM, first compound 0.00316 µM) of 151%. For the same molecule, the viability, T/C (second compound 0.00316 µM, first compound 0.01 µM) was 159%, the viability, T/C (second compound 0.00316 µM, first compound 0.0316 µM) was 163% and the viability, T/C (second compound 0.00316 µM, first compound 0.1 µM) was 140%. It also gave a viability, T/C (second compound 0.01 µM, first compound 0.000316 µM) of 154%, a viability, T/C (second compound 0.01 µM, first compound 0.001 µM) of 171% and a viability, T/C (second compound 0.01 µM, first compound 0.00316 µM) of 142%. It also gave a viability, T/C (second compound 0.01 µM, first compound 0.01 µM) of 146%, a viability, T/C (second compound 0.01 µM, first compound 0.0316 µM) of 153% and a viability, T/C (second compound 0.01 µM, first compound 0.1 µM) of 161%. The viability, T/C (second compound 0.0316 µM, first compound 0.000316 µM) was 96.4%, the viability, T/C (second compound 0.0316 µM, first compound 0.001 µM) was 79.9% and the viability, T/C (second compound 0.0316 µM, first compound 0.00316 µM) was 93.6%. For the same molecule, the viability, T/C (second compound 0.0316 µM, first compound 0.01 µM) was 74.6%, the viability, T/C (second compound 0.0316 µM, first compound 0.0316 µM) was 76.9% and the viability, T/C (second compound 0.0316 µM, first compound 0.1 µM) was 92.1%. It also gave a viability, T/C (second compound 0.1 µM, first compound 0.000316 µM) of 93.2%, a viability, T/C (second compound 0.1 µM, first compound 0.001 µM) of 79.2% and a viability, T/C (second compound 0.1 µM, first compound 0.00316 µM) of 85.6%. It also gave a viability, T/C (second compound 0.1 µM, first compound 0.01 µM) of 83%, a viability, T/C (second compound 0.1 µM, first compound 0.0316 µM) of 87.4% and a viability, T/C (second compound 0.1 µM, first compound 0.1 µM) of 78.2%. For the same molecule, the viability, T/C (second compound 0.316 µM, first compound 0.000316 µM) was 84.8%, the viability, T/C (second compound 0.316 µM, first compound 0.001 µM) was 72.6% and the viability, T/C (second compound 0.316 µM, first compound 0.00316 µM) was 83.3%. It also gave a viability, T/C (second compound 0.316 µM, first compound 0.01 µM) of 87.1%, a viability, T/C (second compound 0.316 µM, first compound 0.0316 µM) of 89.3% and a viability, T/C (second compound 0.316 µM, first compound 0.1 µM) of 84.1%. It also gave a viability, T/C (second compound 1 µM, first compound 0.000316 µM) of 73.3%, a viability, T/C (second compound 1 µM, first compound 0.001 µM) of 74.9% and a viability, T/C (second compound 1 µM, first compound 0.00316 µM) of 83.9%. The viability, T/C (second compound 1 µM, first compound 0.01 µM) was 74.7%, the viability, T/C (second compound 1 µM, first compound 0.0316 µM) was 87.8% and the viability, T/C (second compound 1 µM, first compound 0.1 µM) was 83.2%.

Source: PubChem BioAssay AID1963451 (Molecular Pharmacology Branch, DTP, NCI, 2024)
